Reference: BindingDB's records for doi:10.1002/cbic.201200571 (Technical University of Dortmund, 2013)
One block for each molecule: values may come before it.

Key:
[1] = target: Acyl-protein thioesterase 1 (Homo sapiens, UniProt O75608); assay: Enzymatic Protein Activity Assay
Method: (§1) The enzyme activities were determined by measuring the release of fluorescent 6,8-difluoro-4-methylumbelliferone (DiFMU) by the APT hydrolysis of DiFMU octanoate (DiFMUO) in a Tecan Infinite M200 microplate reader in a 96-well format.

[2] = target: Acyl-protein thioesterase 2 (Homo sapiens, UniProt O95372); assay: Enzymatic Protein Activity Assay
Sequence of Acyl-protein thioesterase 2 (O95372 whole entry): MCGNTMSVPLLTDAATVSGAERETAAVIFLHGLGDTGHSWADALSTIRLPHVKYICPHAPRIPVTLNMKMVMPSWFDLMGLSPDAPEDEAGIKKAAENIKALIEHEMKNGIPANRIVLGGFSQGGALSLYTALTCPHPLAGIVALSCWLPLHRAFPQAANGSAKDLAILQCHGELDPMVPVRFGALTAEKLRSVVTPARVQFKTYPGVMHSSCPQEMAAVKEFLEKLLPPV
Method: as §1

Sequence of Acyl-protein thioesterase 1 (O75608 whole entry): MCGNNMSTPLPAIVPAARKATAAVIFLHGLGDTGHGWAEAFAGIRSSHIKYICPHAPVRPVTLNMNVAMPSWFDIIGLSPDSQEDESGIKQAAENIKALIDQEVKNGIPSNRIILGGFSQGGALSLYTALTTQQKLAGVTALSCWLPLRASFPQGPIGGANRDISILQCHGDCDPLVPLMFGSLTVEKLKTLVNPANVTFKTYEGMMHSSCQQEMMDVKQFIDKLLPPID

SMILES: OB(O)c1ccc(Cl)c(Cl)c1 [3,4-Dichlorophenyl boronic acid]
IC50 [1]: 1.1 µM | IC50 [2]: 0.138 µM

SMILES: OB(O)c1ccc(-c2ccccc2)cc1 [(4-phenylphenyl)boranediol]
IC50 [1]: 16.9 µM | IC50 [2]: 3.55 µM

SMILES: OB(c1ccccc1)c1cccc(COCc2cccc(B(O)c3ccccc3)c2)c1 [Phenylboronic acid, 7]
IC50 [1]: 33.6 µM | IC50 [2]: 41.5 µM

SMILES: OB(O)c1cc2ccccc2s1 [Phenylboronic acid, 11]
IC50 [1]: 2.3 µM | IC50 [2]: 0.529 µM

SMILES: OB(O)c1cc(Oc2ccccc2)ccc1I [Phenylboronic acid, 15]
IC50 [1]: 3.2 µM | IC50 [2]: 0.238 µM

SMILES: COC(=O)c1cc(B(O)O)cc([N+](=O)[O-])c1 [Phenylboronic acid, 16]
IC50 [1]: 3.7 µM | IC50 [2]: 2.95 µM

SMILES: CC(=O)c1cccc(B(O)O)c1 [Phenylboronic acid, 17]
IC50 [1]: 3.9 µM | IC50 [2]: 2.87 µM

SMILES: OB(O)c1ccc(Cl)cc1 [Phenylboronic acid, 18]
IC50 [1]: 4.6 µM | IC50 [2]: 4.18 µM

Results, then the molecule that gave them:

IC50 [1]: > 50 µM | IC50 [2]: > 50 µM
SMILES: OB(O)c1ccccc1-c1ccccc1 [(2-phenylphenyl)boranediol]

IC50 [1]: 0.51 µM | IC50 [2]: 1.97 µM
SMILES: OB(O)c1cc(F)cc(F)c1 [Phenylboronic acid, 8]

IC50 [1]: 1.4 µM | IC50 [2]: 0.418 µM
SMILES: OB(O)c1cccc(Cl)c1 [Phenylboronic acid, 10]

IC50 [1]: 2.7 µM | IC50 [2]: 4.1 µM
SMILES: NCCOB(c1ccccc1)c1ccc(COCc2ccc(B(OCCN)c3ccccc3)cc2)cc1 [Phenylboronic acid, 13]

IC50 [1]: 3.2 µM | IC50 [2]: 1.8 µM
SMILES: CN(C)CCOB(c1ccccc1)c1cccc(COCc2cccc(B(OCCN(C)C)c3ccccc3)c2)c1 [Phenylboronic acid, 14]

IC50 [1]: 6.3 µM | IC50 [2]: 2.16 µM
SMILES: Cc1ccc(Br)c(B(O)O)c1 [Phenylboronic acid, 19]

IC50 [1]: 13.5 µM | IC50 [2]: 11.3 µM
SMILES: OB(O)c1cc2ccccc2o1 [Phenylboronic acid, 21]

IC50 [1]: 14.7 µM | IC50 [2]: 25.1 µM
SMILES: OB(O)c1ccccc1 [Phenylboronic acid, 22]
